The subject of one assay is hSR. Further details: method as in PMID 25331425. The settings on record: allosteric effect of malonate on the ATP site; cited from earlier work.
The target of assay [1] is T1, human SR (hSR) (Homo sapiens, UniProt Q9GZT4, C2D/C6D).
T1 construct: (His)6 (C); made in house; host or cells: E. coli (BL21-CodonPlus (DE3)-RIL for the mutants; the wild type is only 'as described[33]')
T1 sequence (Q9GZT4 1-340 C2D/C6D): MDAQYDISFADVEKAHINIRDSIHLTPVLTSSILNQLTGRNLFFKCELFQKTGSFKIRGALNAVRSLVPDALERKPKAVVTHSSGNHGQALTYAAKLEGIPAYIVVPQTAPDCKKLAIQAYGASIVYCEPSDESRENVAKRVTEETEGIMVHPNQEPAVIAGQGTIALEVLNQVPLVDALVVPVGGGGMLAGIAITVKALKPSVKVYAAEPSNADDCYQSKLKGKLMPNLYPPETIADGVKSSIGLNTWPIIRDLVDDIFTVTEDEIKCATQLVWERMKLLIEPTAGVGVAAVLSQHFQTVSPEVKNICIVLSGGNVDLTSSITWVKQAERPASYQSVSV
Put plainly: Thermal denaturation assay. In kind it is binding. On the procedure: The melting temperature (Tm) of SR was determined in the presence and absence of malonate (disodium salt) and 1 mM ATP (disodium salt, Fisher) in a buffer containing 100 mM CHES pH 8.5, 1 mM MgCl2, and 10 µM PLP. The reaction mixture was prepared in 96-well plates containing final concentrations of 2 µM SR, 5X SYPRO Orange dye (from 5000X concentrate, ThermoFisher), and a 6-point 1:3 dilution series of malonate (0–1 mM). Each condition was assessed with and without 1 mM ATP in the buffer. Thermal denaturation analysis was performed in triplicate by transferring 10 µL reaction mixture to 384-well plates for use in a BioRad CFX384 Touch Real-Time PCR Detection System. Programme: 10 min hold at 25 °C, plate read, increase by increments of 0.5 °C up to 95 °C; each step accompanied by a 15 s hold and plate read. Data were analysed using GraphPad Prism.

In assay [2] the target is T1, human SR (hSR). Set-up: method as in PMID 18812225. The settings on record: read-out: inhibition constant (Ki); cited from earlier work.
Assay [3] has as its target T2, human serine racemase (hSR) WT (Homo sapiens, UniProt Q9GZT4, C2D/C6D).
T2 construct: (His)6 (C); made in house; host or cells: E. coli (BL21-CodonPlus (DE3)-RIL for the mutants; the wild type is only 'as described[33]')
T2 sequence (Q9GZT4 1-340 C2D/C6D): T1 sequence (Q9GZT4 1-340 C2D/C6D)
Put plainly: L- to D-Ser racemisation coupled luminescence assay, wild-type hSR. It counts as biochemical. As to conditions: malonate used as control compound. As for the experimental part:
The ability of compounds to inhibit the L to D-Ser racemisation activity of hSR was measured in a coupled assay. In the assay, hSR converts L-Ser to D-Ser. The D-Ser is then converted into pyruvate, ammonia and hydrogen peroxide using D-amino acid oxidase. Next, the hydrogen peroxide reacts with luminol in the presence of horseradish peroxidase, producing luminescent by-product. In the assay malonate was used as a control compound and gave 100% inhibition – results for XChem compounds are shown in Supplementary Table 4 and in supplementary Fig. 12. The activity of the wild-type and the three Y121 mutants, Y121F, Y121A and Y121G was measured at six ATP concentrations (1 mM, 0.5 mM, 0.25 mM, 0.125 mM, 0.062 mM and 0.031 mM) as shown in supplementary Fig. 11.
The inhibition of hSR activity was measured using a luminescence assay in a 384 well plate (flat bottom white, Corning). Initially, each well contained 100 mM Tris pH 8.5, 0.05% Pluronic f-127 (VWR), 1 mM MgCl2, 1 mM ATP (disodium salt, Fisher), 10 µM PLP, 0.3 nM hSR, 2 mM L-serine and compound at 16.67 mM to 0.0077 mM (see supplementary Fig. 12) and had 16.7% DMSO concentration. The plate was incubated at RT with shaking for 30 min. After this, the reaction was stopped using a detection mix. The final well concentration was 100 mM Tris pH 8.5, 0.05% Pluronic f-127 (VWR), 1 mM EDTA (Fisher), 0.25 U/mL horseradish peroxidase, 0.5 U/mL D-amino acid oxidase and 25 µM Luminol (Insight Biotechnology) and 8.4% DMSO. The plate was left to incubate covered and shaking for 10 min. The plate was then read using a PHERAstar (BMG) plate reader. For the ATP dependant activity data, the method was kept the same, except for varying the concentration of ATP.
The relative light units read (x) on the PHERAstar were converted into percentage inhibition (PI) using the equation: PI=100x[1−(x−Min)/(Max−Min)] where min is negative control (100% inhibition) and max is the positive control (no inhibition). The IC50s were calculated with GraphPad (Prism 8.3.1, Graphpad Software, San Diego CA).

Assay [4] deals with SR. The settings on record: cited from earlier work.
For a further assay, the system named is mouse SR. Further details: method as in PMID 28533113. The settings on record: cited from earlier work.
Assay [5] concerns SR. Further details: method as in supplementary refs 2, 11-32. As to conditions: literature summary; ref supplementary refs 2, 11-32; cited from earlier work.

The text below walks through data of article PMC9001717, “Tyrosine 121 moves revealing a ligandable pocket that couples catalysis to ATP-binding in serine racemase” (Communications Biology, 2022).

Read-outs that look alike come from different tables or passages of the source. Some results are limits rather than exact numbers.

The term Ki denotes a dissociation constant, usually derived from enzyme kinetics or from competition with a known ligand. What is called IC50 is the point on the concentration scale where inhibition reaches its midpoint. Turning to `O=C(O)CC(=O)O` [malonate], the “increase of the affinity of hSR for ATP” value in the assay with hSR is on record as 100 fold. Also, the ΔTm entry at human SR (hSR) [1] (1 mM ATP and 1 mM malonate together) was “+3.7 °C”; on human SR (hSR) [1] (1 mM of the additive alone, reference Tm 47.3 °C), “+1.2 °C”. In addition, the “malonate concentration required for the cooperative stabilising effect of ATP and malonate” value on human SR (hSR) [1] (with 1 mM ATP) is more than 0.1 mM. The inhibition constant Ki at human SR (hSR) [2] was 33 µM; at SR [4] (review of SR inhibitors) it was less than 100 µM. Moreover, the “inhibition by control compound” value in assay [3] is on record as 100%. For the same compound, the figures for the IC50 in the assay on SR [4] (ref 48), with SR [4] (ref 49) and in the assay on mouse SR were 67 µM, 449 µM and 770 µM, respectively. In the assay with SR [5], the Inhibition mode result was “Competitive”.
